Measurements: patent publication US12404241B2 (Celgene Corporation, priority 2018, dated 2025)

Molecular target: T1, AR (Homo sapiens, UniProt P10275)
T1 construct: endogenous in cells; host or cells: VCaP cells
T1 sequence (P10275 1-920): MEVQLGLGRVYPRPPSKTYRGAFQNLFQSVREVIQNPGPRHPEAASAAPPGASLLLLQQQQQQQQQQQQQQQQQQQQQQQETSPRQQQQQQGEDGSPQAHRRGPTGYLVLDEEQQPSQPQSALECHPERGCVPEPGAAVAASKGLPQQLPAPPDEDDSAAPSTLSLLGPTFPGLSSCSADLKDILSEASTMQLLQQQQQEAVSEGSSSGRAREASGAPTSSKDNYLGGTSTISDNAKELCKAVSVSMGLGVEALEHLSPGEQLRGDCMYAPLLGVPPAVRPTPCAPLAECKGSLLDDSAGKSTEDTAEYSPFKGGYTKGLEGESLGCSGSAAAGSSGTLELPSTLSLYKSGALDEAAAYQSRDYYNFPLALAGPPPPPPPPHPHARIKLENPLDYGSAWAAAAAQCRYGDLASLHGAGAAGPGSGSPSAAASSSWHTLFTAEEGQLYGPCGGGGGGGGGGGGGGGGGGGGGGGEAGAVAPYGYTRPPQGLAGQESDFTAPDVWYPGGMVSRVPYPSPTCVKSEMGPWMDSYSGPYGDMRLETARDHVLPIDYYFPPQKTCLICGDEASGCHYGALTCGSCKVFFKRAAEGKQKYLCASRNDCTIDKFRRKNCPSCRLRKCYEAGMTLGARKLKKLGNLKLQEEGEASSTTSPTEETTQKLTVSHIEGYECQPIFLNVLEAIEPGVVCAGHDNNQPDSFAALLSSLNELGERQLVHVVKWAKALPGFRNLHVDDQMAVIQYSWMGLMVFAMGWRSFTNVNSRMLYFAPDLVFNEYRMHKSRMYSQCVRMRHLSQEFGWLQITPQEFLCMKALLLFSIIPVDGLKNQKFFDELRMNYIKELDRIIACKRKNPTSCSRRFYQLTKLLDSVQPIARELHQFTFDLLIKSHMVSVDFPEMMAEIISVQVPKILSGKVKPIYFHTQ
Experiment: VCAP AR Degradation Assay
Type: cell-based
Conditions: for Y (AR degradation efficiency, % of DMSO control): class symbols *; for DC50: class symbols A-C, read-out: DC50
Method in brief: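 Compounds were plated as 10-point 1:3 series reaching 5 μM final, then VCaP cells were seeded onto them and incubated 24 h at 37 °C. Cells were lysed cold, and total AR was measured by sandwich ELISA relative to 0.1% DMSO wells.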

| Compound | Y (AR degradation efficiency, % of DMSO control) | DC50 |
| --- | --- | --- |
| CCc1cc(N2C(=S)N(c3ccc(C#N)c(C(F)(F)F)c3)C(=O)C2(C)C)cnc1OCCN1C[C@@H](C)N(CC(=O)Nc2cc(Cl)cc(NC3CCC(=O)NC3=O)c2)C[C@H]1C (stereo partly drawn) [Example 189, N-(3-chloro-5-(2,6-dioxopiperidin-3-ylamino)phenyl)-2-((2R,5R)-4-(2-(5-(3-(4-cyano-3-(trifluoromethyl)phenyl)-5,5-dimethyl-4-oxo-2-thioxoimidazolidin-1-yl)-3-ethylpyridin-2-yloxy)ethyl)-2,5-dimethylpiperazin-1-yl)acetamide] | * (0<Y<=25%) | < 100 nM |
| CCc1cc(N2C(=S)N(c3cnc(C#N)c(C(F)(F)F)c3)C(=O)C23CCC3)ccc1OCCN1C[C@@H](C)N(CC(=O)Nc2cc(NC3CCC(=O)NC3=O)ccc2F)[C@@H](C)C1 (stereo partly drawn) [Example 190, 2-((2S,6R)-4-(2-(4-(7-(6-cyano-5-(trifluoromethyl)pyridin-3-yl)-8-oxo-6-thioxo-5,7-diazaspiro[3.4]octan-5-yl)-2-ethylphenoxy)ethyl)-2,6-dimethylpiperazin-1-yl)-N-(5-(2,6-dioxopiperidin-3-ylamino)-2-fluorophenyl)acetamide] | * (0<Y<=25%) | < 100 nM |
| CCc1cc(N2C(=S)N(c3cnc(C#N)c(C(F)(F)F)c3)C(=O)C2(C)C)ccc1OCCN1CCN([C@H](C)C(=O)Nc2cc(Cl)cc(NC3CCC(=O)NC3=O)c2)CC1 (stereo partly drawn) [Example 191, (2R)-N-(3-chloro-5-(2,6-dioxopiperidin-3-ylamino)phenyl)-2-(4-(2-(4-(3-(6-cyano-5-(trifluoromethyl)pyridin-3-yl)-5,5-dimethyl-4-oxo-2-thioxoimidazolidin-1-yl)-2-ethylphenoxy)ethyl)piperazin-1-yl)propanamide] | * (0<Y<=25%) | < 100 nM |
| CC(C)c1cc(N2C(=S)N(c3cnc(C#N)c(C(F)(F)F)c3)C(=O)C2(C)C)ccc1OCCN1C[C@@H](C)N(CC(=O)Nc2cccc(NC3CCC(=O)NC3=O)c2)C[C@H]1C (stereo partly drawn) [Example 192, 2-((2R,5R)-4-(2-(4-(3-(6-cyano-5-(trifluoromethyl)pyridin-3-yl)-5,5-dimethyl-4-oxo-2-thioxoimidazolidin-1-yl)-2-isopropylphenoxy)ethyl)-2,5-dimethylpiperazin-1-yl)-N-(3-(2,6-dioxopiperidin-3-ylamino)phenyl)acetamide] | ** (25%<Y<=35%) | 100 to 500 nM |
| CC(C)c1cc(N2C(=S)N(c3ccc(C#N)c(C(F)(F)F)c3)C(=O)C2(C)C)ccc1OCCN1C[C@@H](C)N(CC(=O)Nc2cccc(NC3CCC(=O)NC3=O)c2)C[C@H]1C (stereo partly drawn) [Example 193, 2-((2R,5R)-4-(2-(4-(3-(4-cyano-3-(trifluoromethyl)phenyl)-5,5-dimethyl-4-oxo-2-thioxoimidazolidin-1-yl)-2-isopropylphenoxy)ethyl)-2,5-dimethylpiperazin-1-yl)-N-(3-(2,6-dioxopiperidin-3-ylamino)phenyl)acetamide] | ** (25%<Y<=35%) | 100 to 500 nM |
| CC(C)c1cc(N2C(=S)N(c3ccc(C#N)c(C(F)(F)F)c3)C(=O)C2(C)C)ccc1OCCN1C[C@@H](C)N(CC(=O)Nc2cc(C#N)cc(NC3CCC(=O)NC3=O)c2)[C@@H](C)C1 (stereo partly drawn) [Example 194, 2-((2S,6R)-4-(2-(4-(3-(4-cyano-3-(trifluoromethyl)phenyl)-5,5-dimethyl-4-oxo-2-thioxoimidazolidin-1-yl)-2-isopropylphenoxy)ethyl)-2,6-dimethylpiperazin-1-yl)-N-(3-cyano-5-(2,6-dioxopiperidin-3-ylamino)phenyl)acetamide] | * (0<Y<=25%) | < 100 nM |
| CC(C)c1cc(N2C(=S)N(c3cnc(C#N)c(C(F)(F)F)c3)C(=O)C23CCC3)ccc1OCCN1C[C@@H](C)N(CC(=O)Nc2cc(Cl)cc(NC3CCC(=O)NC3=O)c2)[C@@H](C)C1 (stereo partly drawn) [Example 195, N-(3-chloro-5-(2,6-dioxopiperidin-3-ylamino)phenyl)-2-((2S,6R)-4-(2-(4-(7-(6-cyano-5-(trifluoromethyl)pyridin-3-yl)-8-oxo-6-thioxo-5,7-diazaspiro[3.4]octan-5-yl)-2-isopropylphenoxy)ethyl)-2,6-dimethylpiperazin-1-yl)acetamide] | * (0<Y<=25%) | < 100 nM |
| C[C@@H]1CN(CCOc2ccc(N3C(=S)N(c4cnc(C#N)c(C(F)(F)F)c4)C(=O)C34CCC4)cc2C2CC2)C[C@H](C)N1CC(=O)Nc1cccc(NC2CCC(=O)NC2=O)c1 (stereo partly drawn) [Example 196, 2-((2S,6R)-4-(2-(4-(7-(6-cyano-5-(trifluoromethyl)pyridin-3-yl)-8-oxo-6-thioxo-5,7-diazaspiro[3.4]octan-5-yl)-2-cyclopropylphenoxy)ethyl)-2,6-dimethylpiperazin-1-yl)-N-(3-(2,6-dioxopiperidin-3-ylamino)phenyl)acetamide] | * (0<Y<=25%) | < 100 nM |
| CC(C)c1cc(N2C(=S)N(c3ccc(C#N)c(C(F)(F)F)c3)C(=O)C2(C)C)ccc1OCCN1CCN(C2(C(=O)Nc3cccc(NC4CCC(=O)NC4=O)c3)CC2)CC1 (stereo not drawn) [Example 197] | *** (35%<Y<50%) | 100 to 500 nM |
| C[C@@H]1CN(CCOc2ccc(N3C(=S)N(c4cnc(C#N)c(C(F)(F)F)c4)C(=O)C34CCC4)cc2C2CC2)C[C@H](C)N1CC(=O)Nc1cc(NC2CCC(=O)NC2=O)ccc1F (stereo partly drawn) [Example 198, 2-((2S,6R)-4-(2-(4-(7-(6-cyano-5-(trifluoromethyl)pyridin-3-yl)-8-oxo-6-thioxo-5,7-diazaspiro[3.4]octan-5-yl)-2-cyclopropylphenoxy)ethyl)-2,6-dimethylpiperazin-1-yl)-N-(5-(2,6-dioxopiperidin-3-ylamino)-2-fluorophenyl)acetamide] | * (0<Y<=25%) | < 100 nM |
| CCc1cc(N2C(=S)N(c3ccc(C#N)c(C(F)(F)F)c3)C(=O)C2(C)C)ccc1OCCN1CCN([C@H](C)C(=O)Nc2cccc(NC3CCC(=O)NC3=O)c2)CC1 (stereo partly drawn) [Example 199, (2R)-2-(4-(2-(4-(3-(4-cyano-3-(trifluoromethyl)phenyl)-5,5-dimethyl-4-oxo-2-thioxoimidazolidin-1-yl)-2-ethylphenoxy)ethyl)piperazin-1-yl)-N-(3-(2,6-dioxopiperidin-3-ylamino)phenyl)propanamide] | ** (25%<Y<=35%) | < 100 nM |
| CCc1cc(N2C(=S)N(c3cnc(C#N)c(C(F)(F)F)c3)C(=O)C2(C)C)ccc1OCCN1CCN(CC(=O)Nc2cccc(NC3CCC(=O)NC3=O)c2)[C@@H](C(F)(F)F)C1 (stereo partly drawn) [Example 200, 2-((R)-4-(2-(4-(3-(6-cyano-5-(trifluoromethyl)pyridin-3-yl)-5,5-dimethyl-4-oxo-2-thioxoimidazolidin-1-yl)-2-ethylphenoxy)ethyl)-2-(trifluoromethyl)piperazin-1-yl)-N-(3-(2,6-dioxopiperidin-3-ylamino)phenyl)acetamide] | * (0<Y<=25%) | < 100 nM |
| CCc1cc(N2C(=S)N(c3cnc(C#N)c(C(F)(F)F)c3)C(=O)C2(C)C)ccc1OCCN1CCN(CC(=O)Nc2cccc(NC3CCC(=O)NC3=O)c2)[C@H](C(F)(F)F)C1 (stereo partly drawn) [Example 201, 2-((S)-4-(2-(4-(3-(6-cyano-5-(trifluoromethyl)pyridin-3-yl)-5,5-dimethyl-4-oxo-2-thioxoimidazolidin-1-yl)-2-ethylphenoxy)ethyl)-2-(trifluoromethyl)piperazin-1-yl)-N-(3-(2,6-dioxopiperidin-3-ylamino)phenyl)acetamide] | * (0<Y<=25%) | < 100 nM |
| CC(C)c1cc(N2C(=S)N(c3ccc(C#N)c(Cl)c3)C(=O)C2(C)C)ccc1OCCN1C[C@@H](C)N(CC(=O)Nc2cccc(NC3CCC(=O)NC3=O)c2)[C@@H](C)C1 (stereo partly drawn) [Example 202, 2-((2S,6R)-4-(2-(4-(3-(3-chloro-4-cyanophenyl)-5,5-dimethyl-4-oxo-2-thioxoimidazolidin-1-yl)-2-isopropylphenoxy)ethyl)-2,6-dimethylpiperazin-1-yl)-N-(3-(2,6-dioxopiperidin-3-ylamino)phenyl)acetamide] | * (0<Y<=25%) | < 100 nM |
| C[C@@H]1CN(CC(=O)Nc2cccc(NC3CCC(=O)NC3=O)c2)[C@H](C)CN1CCOc1ccc(N2C(=S)N(c3ccc(C#N)c(C(F)(F)F)c3)C(=O)C2(C)C)cc1C1CC1 (stereo partly drawn) [Example 203, 2-((2R,5R)-4-(2-(4-(3-(4-cyano-3-(trifluoromethyl)phenyl)-5,5-dimethyl-4-oxo-2-thioxoimidazolidin-1-yl)-2-cyclopropylphenoxy)ethyl)-2,5-dimethylpiperazin-1-yl)-N-(3-(2,6-dioxopiperidin-3-ylamino)phenyl)acetamide] | * (0<Y<=25%) | < 100 nM |
